Data as given in US7285555B2, “6-aryl-7-halo-imidazo[1,2-a]pyrimidines as anticancer agents” (Wyeth Holdings Corporation, priority 2003, dated 2007).

Legend:
MAP-rich tubulin = assay: Tubulin polymerization test procedure with MAP-rich tubulin; format: biochemical, bovine; conditions: MAP-rich tubulin with 1 mM GTP, compound 0.3 μM, at 20 min
Method: (§1) Medium is RPMI-1640 with L-glutamine, supplemented with 10% heat-inactivated fetal calf serum, 100 units/mL penicillin, and 100 μg/mL streptomycin (Gibco, Grand Island, N.Y.). Microtubule-associated protein (MAP)-rich tubulin, containing about 70% tubulin and 30% MAPs (#ML113), and highly purified tubulin (>99% pure, #TL238), both from bovine brain, are obtained from Cytoskeleton, Inc., Denver, Colo. PEM buffer (80 mM piperazine-N,N′-bis[2-ethanesulfonic acid], pH 6.9, 1 mM ethylene glycol-bis(β-aminoethyl ether)-N,N,N′,N′-tetraacetic acid, 1 mM magnesium chloride) and guanosine 5′-triphosphate (GTP) are also obtained from Cytoskeleton. [^3H]paclitaxel, specific activity 14.7 Ci/mmol, is purchased from Moravek Biochemicals (Brea, Calif.). [^3H]vinblastine, specific activity 9.60 Ci/mmol and MicroSpin G-50 columns are obtained from Amersham Biosciences (Piscataway, N.J.). […] Other reagents are obtained from Sigma (St. Louis, Mo.).
MAP-rich tubulin is dissolved in ice-cold PEM buffer containing 1 mM GTP (GPEM buffer) at a concentration of 1.3 mg/mL. The solution is centrifuged at top speed in an Eppendorf model 5415C microcentrifuge (Brinkmann Instruments, Westbury, N.Y.) for 10 min at 40 immediately before use. The tubulin solution is added to wells of a ½-area 96-well plate (Costar No. 3696, Corning, Inc., Corning, N.Y.) already containing the compounds of interest. Each compound is tested in duplicate at a final concentration of 0.3 μM in a volume of 110 μL per well. The final DMSO concentration in all wells is 0.3%. Control reactions, which receive compound solvent only, are done in quadruplicate. The plate is put in a SpectraMax Plus plate reader (Molecular Devices Corp. Sunnyvale, Calif.) thermostated at 240 and the absorbance of each well at 340 nm, a measure of the appearance of turbidity due to tubulin polymer formation, is determined every minute for 60 minutes. The absorbance at time 0 for each well is subtracted from each of the subsequent absorbance readings for that well, and then the duplicates are averaged.
In this assay, control reactions with MAP-rich tubulin show an S-shaped absorbance profile characterized by three phases: first, a lag phase during which no change in absorbance occurs; second, a polymerization phase in which absorbance increases; and third, a plateau phase in which absorbance has reached a maximum and little or no further change occurs. Polymerization enhancers such as paclitaxel and docetaxel shorten or eliminate the lag phase, increase the rate of the polymerization phase, and often increase the height of the plateau. […] This has been expressed quantitatively in Table 6 by dividing the mean A340 of each sample at 20 min by the mean A340 of the control at 20 min to give a fold enhancement over control. […]

pure tubulin = assay: Tubulin polymerization test procedure with pure tubulin; format: biochemical, bovine; conditions: for polymerization of pure tubulin without GTP (in words): pure tubulin without added GTP
Method: as §1
The procedure with pure tubulin is similar except for the following changes. […] The supernatant after centrifugation is dispensed to a ½-area 96-well plate already containing compounds. Each compound is tested in duplicate at a final concentration of 24.3 μM. The plate reader μs thermostated at 35°.

[1] = test system: highly purified tubulin (tubulin heterodimer); assay: Competitive binding test procedure, [3H]vinblastine; set-up: species or system bovine; conditions: competitor 100 μM, [3H]vinblastine 100 nM
Method: as §1
(§2) The binding of examples of this invention to highly purified tubulin is studied by competitive inhibition methods. […] To study possible competition at the taxane site, on the other hand, polymerized tubulin (microtubules) is used because paclitaxel binds preferentially to microtubules.
(§3) Highly purified tubulin is dissolved in PEM buffer without GTP and used at a final concentration of 1.0 to 1.3 mg/ml (10 to 13 μM). […] These solutions are incubated at 240 for 1 hr and then applied to MicroSpin G-50 columns which are centrifuged for 2 min at 3000 rpm in an Eppendorf 5415C microfuge. An aliquot of each column effluent (containing tubulin and bound radioligand) is mixed with scintillation fluid and counted in a liquid scintillation spectrometer. […] Quadruplicates are averaged, and the ability of the competitor to inhibit the binding of the radioligand is expressed as a percentage of control binding in the absence of any competitor.

[2] = test system: highly purified tubulin (tubulin heterodimer); assay: Competitive binding test procedure, [3H]colchicine; set-up: species or system bovine; conditions: competitor 100 μM, [3H]colchicine 50 nM
Method: as §1, §2, §3

[3] = test system: polymerized tubulin (microtubules); assay: Competitive binding test procedure, [3H]paclitaxel; set-up: species or system bovine; conditions: [3H]paclitaxel 2.1 μM
Method: as §1, §2
For competition with [^3H]paclitaxel, highly purified tubulin is dissolved in PEM buffer containing 0.75 M glutamate and 25 μM dideoxy-GTP; final protein concentration is 0.25 to 0.35 mg/mL (2.5 to 3.5 μM). These conditions foster the rapid formation of short, stable microtubule polymers (Hamel, E., del Campo, A. A., and Lin, C. M. Stability of tubulin polymers formed with dideoxyguanosine nucleotides in the presence and absence of microtubule-associated proteins. J. Biol. Chem., 259: 2501-2508, 1984). […] The reactions are then centrifuged at top speed in an Eppendorf 5415C microfuge for 20 min at room temperature in order to pellet the microtubule protein. Triplicate aliquots of each supernatant are mixed with scintillation fluid and counted in a liquid scintillation spectrometer. From the amount of radioactivity in the supernatants and the measured total starting radioactivity, the amount of [^3H]paclitaxel bound to pelleted microtubule protein is calculated. The ability of each competitor to inhibit radioligand binding to pelleted protein is expressed as a percent of controls without any competitor.

| [3H]Vinblastine binding, Mean, percent of binding to control without competitor [1] [%] | [3H]Colchicine binding, Mean, percent of binding to control without competitor [2] [%] | [3H]Colchicine binding, Mean, percent of binding to control without competitor ([2]; listed as example 6) | [3H]Paclitaxel binding, Mean, percent of binding to control without competitor ([3]; competitor 20 μM) [%] | [3H]Paclitaxel binding, Mean, percent of binding to control without competitor ([3]; competitor 20 μM, listed as example 6) | [3H]Paclitaxel binding, Mean, percent of binding to control without competitor ([3]; competitor unlabeled paclitaxel 5 μM) [%] | SMILES | A340 Compound / A340 Control (fold enhancement over control) (MAP-rich tubulin) | polymerization of pure tubulin without GTP (in words) (pure tubulin) | A340 at 0 min (pure tubulin; pure tubulin, no added GTP, compound 24.3 μM, 0 min) | A340 at 5 min (pure tubulin; pure tubulin, no added GTP, compound 24.3 μM, 5 min) | A340 at 10 min (pure tubulin; pure tubulin, no added GTP, compound 24.3 μM, 10 min) | A340 at 15 min (pure tubulin; pure tubulin, no added GTP, compound 24.3 μM, 15 min) | A340 at 20 min (pure tubulin; pure tubulin, no added GTP, compound 24.3 μM, 20 min) |
| --- | --- | --- | --- | --- | --- | --- | --- | --- | --- | --- | --- | --- | --- |
| 17 | 84 | does not inhibit | 92 | does not inhibit | – | CN(C)CCCOc1cc(F)c(-c2c(Cl)nc3nccn3c2C2CCCCCC2)c(F)c1 [Example 6, 3-[4-(7-Chloro-5-cycloheptylimidazo[1,2-a]pyrimidin-6-yl)-3,5-difluorophenoxy]-N,N-dimethylpropan-1-amine] | 1.7 | induces polymerization | 0 | 0.15 | 0.19 | 0.19 | 0.19 |
| 92 | 93 | – | – | – | 35 | CC(=O)O[C@H]1C(=O)[C@@]2(C)[C@H]([C@H](OC(=O)c3ccccc3)[C@]3(O)C[C@H](OC(=O)[C@H](O)[C@@H](NC(=O)c4ccccc4)c4ccccc4)C(C)=C1C3(C)C)[C@]1(OC(C)=O)CO[C@@H]1C[C@@H]2O [Paclitaxel, reference compound] | 1.8 | able to induce polymerization | – | – | – | – | – |
